Measured values published in the supplement of paper PMC10307832.

Legend:
Assay in all cases: relative viability (nuclei count vs DMSO), 5 days (fraction); higher = more cells survive
[1] = compound: NCC(=O)Nc1ccc(-n2nc(C(F)(F)F)cc2-c2ccc3c(ccc4ccccc43)c2)cc1 + CCNC(=O)c1noc(-c2cc(C(C)C)c(O)cc2O)c1-c1ccc(CN2CCOCC2)cc1 [Luminespib] (partner 0.01 µM)
How it was run: (§1)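 Values are medians from duplicate plates. Each reflects relative viability, defined as the nuclei count of treated wells over that of vehicle wells. Lung cancer cell lines in 1536-well plates were pin-tool dosed one day after seeding with one drug alone or with a fixed anchor-drug dose plus five library-drug doses (not always all listed) in √10 steps, then fixed, stained and imaged at 4× after 5 days.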

[2] = compound: C1CSC2=C(C(=O)N1)SC3=C2C=C(C=C3)O [kb NB 142-70] + CCNC(=O)c1noc(-c2cc(C(C)C)c(O)cc2O)c1-c1ccc(CN2CCOCC2)cc1 [Luminespib] (partner 0.01 µM)
How it was run: as §1

[3] = compound: C1CSC2=C(C(=O)N1)SC3=C2C=C(C=C3)O [kb NB 142-70] + N=C(N)NC(=N)NCCc1ccccc1 [Phenformin] (partner 250 µM)
How it was run: as §1

[4] = compound: NCC(=O)Nc1ccc(-n2nc(C(F)(F)F)cc2-c2ccc3c(ccc4ccccc43)c2)cc1 + N=C(N)NC(=N)NCCc1ccccc1 [Phenformin] (partner 250 µM)
How it was run: as §1

[5] = compound: C1CSC2=C(C(=O)N1)SC3=C2C=C(C=C3)O [kb NB 142-70] + CC(C)C[C@H](NC(=O)[C@H](Cc1ccccc1)NC(=O)c1cnccn1)B(O)O [Bortezomib] (partner 0.002 µM)
How it was run: as §1

UMC-11
relative viability ([1]; first compound 0.02 µM): 1.06 | relative viability ([1]; first compound 0.06325 µM): 0.965 | relative viability ([1]; first compound 0.2 µM): 1.05 | relative viability ([1]; first compound 0.6325 µM): 0.948 | relative viability ([1]; first compound 2 µM): 0.948 | relative viability ([2]; first compound 0.1 µM): 1.02 | relative viability ([2]; first compound 1 µM): 0.908 | relative viability ([2]; first compound 3.162 µM): 0.494 | relative viability ([3]; first compound 0.1 µM): 0.338 | relative viability ([3]; first compound 1 µM): 0.307 | relative viability ([3]; first compound 3.162 µM): 0.251 | relative viability ([4]; first compound 0.02 µM): 0.292 | relative viability ([4]; first compound 0.06325 µM): 0.337 | relative viability ([4]; first compound 0.2 µM): 0.334 | relative viability ([4]; first compound 0.6325 µM): 0.319 | relative viability ([4]; first compound 2 µM): 0.335 | relative viability ([5]; first compound 0.1 µM): 0.667 | relative viability ([5]; first compound 1 µM): 0.806 | relative viability ([5]; first compound 3.162 µM): 0.703
